Assay results taken from patent US12139492B2 (Endotarget Inc., priority 2021, dated 2024).
Where two headings read alike, the source gives them in different places.

Assays:
BTK = BTK (Homo sapiens, UniProt Q06187); test: Degradation of BTK protein in Namalwa cells (Western blot; DC50, Dmax); conditions: for DC50: cell line not given
Mino cells = test: Antiproliferative effect, MTS cell viability assay, Mino cells; format: cell-based; conditions: Homo sapiens, MINO, Mino mantle cell lymphoma cells; read-out: IC50 (anti-proliferation) Mino cells
Experimental: (§1) Antiproliferative effect of the exemplary compounds was assessed in B-cell malignancy models.
(§2) To assess the effect of the exemplary compounds on cell viability in B-cell malignancy models by degradation of BTK protein, Mino and JeKo-1 cells were treated with varying concentrations of Ibrutinib (0, 0.001, 0.01, 0.1, 1, 10 μM). Under these conditions, cell viability was determined by an MTS assay. Cytotoxicity was assayed by the determination of reduced tetrazolium (formazan) created by metabolically active cells as detected at 490 nm absorbance using a microplate reader (BMG Labtech, Cary, NC, USA).
(§3) The exemplary compounds attenuated the viability of Mino and JeKo-1 cells in a concentration-dependent manner at 72 h post treatment. Results are shown in Table 1 for each exemplary compound.

JeKo-1 cells = test: Antiproliferative effect, MTS cell viability assay, JeKo-1 cells; format: cell-based; conditions: Homo sapiens; JeKo-1 mantle cell lymphoma cells; read-out: IC50 (anti-proliferation) JeKO-1 cells
Experimental: as §1, §2, §3

[1] = read-out: DC50 (BTK degradation), concentration giving 50% reduction of BTK expression level
[2] = read-out: Dmax (BTK degradation)

BTK, sequence (Q06187 whole entry): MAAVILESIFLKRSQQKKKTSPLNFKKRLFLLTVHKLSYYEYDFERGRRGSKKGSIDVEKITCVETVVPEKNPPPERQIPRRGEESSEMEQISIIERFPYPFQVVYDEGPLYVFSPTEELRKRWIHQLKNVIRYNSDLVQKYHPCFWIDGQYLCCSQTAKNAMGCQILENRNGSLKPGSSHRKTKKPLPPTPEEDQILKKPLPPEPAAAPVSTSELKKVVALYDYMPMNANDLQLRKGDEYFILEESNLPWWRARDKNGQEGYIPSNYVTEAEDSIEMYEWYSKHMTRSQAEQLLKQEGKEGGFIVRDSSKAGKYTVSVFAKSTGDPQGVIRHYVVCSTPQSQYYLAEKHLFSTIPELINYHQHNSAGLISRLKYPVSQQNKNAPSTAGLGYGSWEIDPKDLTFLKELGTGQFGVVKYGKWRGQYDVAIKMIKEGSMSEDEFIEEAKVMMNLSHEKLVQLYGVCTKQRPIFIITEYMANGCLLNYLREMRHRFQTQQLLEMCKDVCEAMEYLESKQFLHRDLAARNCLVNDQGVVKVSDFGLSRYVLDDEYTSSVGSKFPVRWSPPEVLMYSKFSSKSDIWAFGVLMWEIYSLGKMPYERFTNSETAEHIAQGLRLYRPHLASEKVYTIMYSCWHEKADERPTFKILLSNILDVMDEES

Row | DC50 (BTK; [1]) | Dmax (BTK; [2]) | Dmax (BTK) | DC50 (BTK; BTK degradation) | degradation of BTK protein (BTK; Namalwa B lymphocyte cells, various concentrations, 24 hours, Western blot) | SMILES | IC50 (Mino cells) | IC50 (JeKo-1 cells)
1 | 10 to 50 nM | > 90% |  |  |  | Nc1ncnc2c1c(-c1ccc(Oc3ccccc3)cc1)nn2C1CCN(C[C@@H]2CCN(CC3CCN(c4ccc5c(c4)C(=O)N(C4CCC(=O)NC4=O)C5=O)CC3)C2)CC1 (stereo partly drawn) [Compound 445b, 5-(4-(((S)-3-((4-(4-amino-3-(4-phenoxyphenyl)-1H-pyrazolo[3,4-d]pyrimidin-1-yl)piperidin-1-yl)methyl)pyrrolidin-1-yl)methyl)piperidin-1-yl)-2-(2,6-dioxopiperidin-3-yl)isoindoline-1,3-dione] | 1000 to 10000 nM | 1000 to 10000 nM
2 | 10 to 50 nM | > 90% |  |  |  | Nc1ncnc2c1c(-c1ccc(Oc3ccccc3)cc1)nn2C1CCN(C[C@@H]2CCN(C[C@H]3CCN(c4ccc5c(c4)C(=O)N(C4CCC(=O)NC4=O)C5=O)C3)C2)CC1 (stereo partly drawn) [Compound 447d, 5-((R)-3-(((S)-3-((4-(4-amino-3-(4-phenoxyphenyl)-1H-pyrazolo[3,4-d]pyrimidin-1-yl)piperidin-1-yl)methyl)pyrrolidin-1-yl)methyl)pyrrolidin-1-yl)-2-(2,6-dioxopiperidin-3-yl)isoindoline-1,3-dione] | 1000 to 10000 nM | 1000 to 10000 nM
3 | 10 to 50 nM | > 90% |  |  |  | Nc1ncnc2c1c(-c1ccc(Oc3ccccc3)cc1)nn2C1CCN(C[C@H]2CCN(CC3CN(c4ccc5c(c4)C(=O)N(C4CCC(=O)NC4=O)C5=O)C3)C2)CC1 (stereo partly drawn) [Compound 423a, 5-(3-(((R)-3-((4-(4-amino-3-(4-phenoxyphenyl)-1H-pyrazolo[3,4-d]pyrimidin-1-yl)piperidin-1-yl)methyl)pyrrolidin-1-yl)methyl)azetidin-1-yl)-2-(2,6-dioxopiperidin-3-yl)isoindoline-1,3-dione] | < 1000 nM | 1000 to 10000 nM
4 | < 10 nM | > 90% |  |  |  | Nc1ncnc2c1c(-c1ccc(Oc3ccccc3)cc1)nn2C1CCN(CC2CN(C[C@@H]3CCN(c4ccc5c(c4)C(=O)N(C4CCC(=O)NC4=O)C5=O)C3)C2)CC1 (stereo partly drawn) [Compound 443b, 5-((S)-3-((3-((4-(4-amino-3-(4-phenoxyphenyl)-1H-pyrazolo[3,4-d]pyrimidin-1-yl)piperidin-1-yl)methyl)azetidin-1-yl)methyl)pyrrolidin-1-yl)-2-(2,6-dioxopiperidin-3-yl)isoindoline-1,3-dione] | < 1000 nM | < 1000 nM

More lines, now with the values behind:

Row | SMILES | DC50 (BTK; [1]) | Dmax (BTK; [2]) | Dmax (BTK) | DC50 (BTK; BTK degradation) | degradation of BTK protein (BTK; Namalwa B lymphocyte cells, various concentrations, 24 hours, Western blot) | IC50 (Mino cells) | IC50 (JeKo-1 cells)
5 | Nc1ncnc2c1c(-c1ccc(Oc3ccccc3)cc1)nn2C1CCN(C2CCN(C(=O)N3CCC(N4CCC(c5ccc6c(c5)C(=O)N(C5CCC(=O)NC5=O)C6=O)CC4)CC3)CC2)CC1 (centres unmarked) [Compound 235, 5-(1′-(4-(4-amino-3-(4-phenoxyphenyl)-1H-pyrazolo[3,4-d]pyrimidin-1-yl)-[1,4′-bipiperidine]-1′-carbonyl)-[1,4′-bipiperidin]-4-yl)-2-(2,6-dioxopiperidin-3-yl)isoindoline-1,3-dione] |  |  | > 90% | 10 to 50 nM |  | 1000 to 10000 nM | 1000 to 10000 nM
6 | NC(=O)c1c(-c2ccc(Oc3ccccc3)cc2)nn2c1NCCC2C1CCN(C(=O)N2CCC(CN3CCN(c4ccc5c(c4)C(=O)N(C4CCC(=O)NC4=O)C5=O)CC3)CC2)CC1 (centres unmarked) [Compound 275, 7-(1-(4-((4-(2-(2,6-dioxopiperidin-3-yl)-1,3-dioxoisoindolin-5-yl)piperazin-1-yl)methyl)piperidine-1-carbonyl)piperidin-4-yl)-2-(4-phenoxyphenyl)-4,5,6,7-tetrahydropyrazolo[1,5-a]pyrimidine-3-carboxamide] |  |  | > 90% | < 10 nM |  | 1000 to 10000 nM | 1000 to 10000 nM
7 | NC(=O)c1c(-c2ccc(Oc3ccccc3)cc2)nn2c1NCC[C@H]2C1CCN(C2CCN(C(=O)N3CCC(CN4CCN(c5ccc6c(c5)C(=O)N(C5CCC(=O)NC5=O)C6=O)CC4)CC3)CC2)CC1 (stereo partly drawn) [Compound 389, (7S)-7-(1′-(4-((4-(2-(2,6-dioxopiperidin-3-yl)-1,3-dioxoisoindolin-5-yl)piperazin-1-yl)methyl)piperidine-1-carbonyl)-[1,4′-bipiperidin]-4-yl)-2-(4-phenoxyphenyl)-4,5,6,7-tetrahydropyrazolo[1,5-a]pyrimidine-3-carboxamide] |  |  | > 90% | 10 to 50 nM |  | 1000 to 10000 nM | 1000 to 10000 nM
8 | Nc1ncnc2c1c(-c1ccc(Oc3ccccc3)cc1)nn2C1CCN(C2CCN(CCCN3CCN(c4ccc5c(c4)C(=O)N(C4CCC(=O)NC4=O)C5=O)CC3)CC2)CC1 (centres unmarked) [Compound 221, 5-(4-(3-(4-(4-amino-3-(4-phenoxyphenyl)-1H-pyrazolo[3,4-d]pyrimidin-1-yl)-[1,4′-bipiperidin]-1′-yl)propyl)piperazin-1-yl)-2-(2,6-dioxopiperidin-3-yl)isoindoline-1,3-dione] |  |  | > 75% | 10 to 50 nM |  | > 10000 nM | 1000 to 10000 nM
9 | Nc1ncnc2c1c(-c1ccc(Oc3ccccc3)cc1)nn2C1CCN(CC2CN(CC3CCN(c4ccc5c(c4)C(=O)N(C4CCC(=O)NC4=O)C5=O)C3)C2)CC1 (centres unmarked) [Compound 443, 5-(3-((3-((4-(4-amino-3-(4-phenoxyphenyl)-1H-pyrazolo(3,4-d)pyrimidin-1-yl)piperidin-1-yl)methyl)azetidin-1-yl)methyl)pyrrolidin-1-yl)-2-(2,6-dioxopiperidin-3-yl)isoindoline-1,3-dione] | < 10 nM | > 90% |  |  | dose-dependent degradation | < 1000 nM | < 1000 nM
10 | NC1=NC=NC2C1C(c1ccc(Oc3ccccc3)cc1)=NN2[C@@H]1CCCN(C(=O)N2CC(C3CN(c4ccc5c(c4)C(=O)N(C4CCC(=O)NC4=O)C5=O)C3)C2)C1 (stereo partly drawn) [Compound 497, 5-(1′-((3R)-3-(4-amino-3-(4-phenoxyphenyl)-3a,7a-dihydro-1H-pyrazolo[3,4-d]pyrimidin-1-yl)piperidine-1-carbonyl)-[3,3′-biazetidin]-1-yl)-2-(2,6-dioxopiperidin-3-yl)isoindoline-1,3-dione] | 10 to 50 nM | > 90% |  |  |  | < 1000 nM | < 1000 nM
11 | NC1=NC=NC2C1C(c1ccc(Oc3ccccc3)cc1)=NN2C1CCN(C(=O)N2CC(C3CN(c4ccc5c(c4)CN(C4CCC(=O)NC4=O)C5=O)C3)C2)CC1 (centres unmarked) [Compound 494, 3-(5-(1′-(4-(4-amino-3-(4-phenoxyphenyl)-3a,7a-dihydro-1H-pyrazolo[3,4-d]pyrimidin-1-yl)piperidine-1-carbonyl)-[3,3′-biazetidin]-1-yl)-1-oxoisoindolin-2-yl)piperidine-2,6-dione] | < 10 nM | > 90% |  |  |  | < 1000 nM | < 1000 nM
12 | Nc1ncnc2c1c(-c1ccc(Oc3ccccc3)cc1)nn2C1CCN(C2CCN(CCC3CCN(c4ccc5c(c4)C(=O)N(C4CCC(=O)NC4=O)C5=O)CC3)CC2)CC1 (centres unmarked) [Compound 215, 5-(4-(2-(4-(4-amino-3-(4-phenoxyphenyl)-1H-pyrazolo[3,4-d]pyrimidin-1-yl)-[1,4′-bipiperidin]-1′-yl)ethyl)piperidin-1-yl)-2-(2,6-dioxopiperidin-3-yl)isoindoline-1,3-dione] |  |  | > 75% | 10 to 50 nM |  | 1000 to 10000 nM | < 1000 nM
13 | NC(=O)c1c(-c2ccc(Oc3ccccc3)cc2)nn2c1NCCC2C1CCN(CC2CCN(C(=O)N3CCN(CC4CCN(c5ccc6c(c5)CN(C5CCC(=O)NC5=O)C6=O)CC4)CC3)CC2)CC1 (centres unmarked) [Compound 372, 7-(1-((1-(4-((1-(2-(2,6-dioxopiperidin-3-yl)-1-oxoisoindolin-5-yl)piperidin-4-yl)methyl)piperazine-1-carbonyl)piperidin-4-yl)methyl)piperidin-4-yl)-2-(4-phenoxyphenyl)-4,5,6,7-tetrahydropyrazolo[1,5-a]pyrimidine-3-carboxamide] |  |  | > 90% | 10 to 50 nM |  | 1000 to 10000 nM | < 1000 nM
14 | Nc1ncnc2c1c(-c1ccc(Oc3ccccc3)cc1)nn2C1CCN(CCN2CCN(CCSc3ccc4c(c3)CN(C3CCC(=O)NC3=O)C4=O)CC2)CC1 (centres unmarked) [Compound 466, 3-(5-((2-(4-(2-(4-(4-amino-3-(4-phenoxyphenyl)-1H-pyrazolo[3,4-d]pyrimidin-1-yl)piperidin-1-yl)ethyl)piperazin-1-yl)ethyl)thio)-1-oxoisoindolin-2-yl)piperidine-2,6-dione] | > 50 nM | > 50% |  |  |  | > 10000 nM | > 10000 nM
15 | NC(=O)c1c(-c2ccc(Oc3ccccc3)cc2)nn2c1NCC[C@H]2C1CCN(C2CCN(C(=O)N3CCN(C4CCN(c5ccc6c(c5)CN(C5CCC(=O)NC5=O)C6=O)CC4)CC3)CC2)CC1 (stereo partly drawn) [Compound 386, (7S)-7-(1′-(4-(1-(2-(2,6-dioxopiperidin-3-yl)-1-oxoisoindolin-5-yl)piperidin-4-yl)piperazine-1-carbonyl)-[1,4′-bipiperidin]-4-yl)-2-(4-phenoxyphenyl)-4,5,6,7-tetrahydropyrazolo[1,5-a]pyrimidine-3-carboxamide] |  |  | > 90% | < 10 nM |  | < 1000 nM | < 1000 nM
16 | NC(=O)c1c(-c2ccc(Oc3ccccc3)cc2)nn2c1NCC[C@H]2C1CCN(C2CCN(C(=O)N3CCN(Cc4ccc5c(c4)C(=O)N(C4CCC(=O)NC4=O)C5=O)CC3)CC2)CC1 (stereo partly drawn) [Compound 379, (7S)-7-(1′-(4-((2-(2,6-dioxopiperidin-3-yl)-1,3-dioxoisoindolin-5-yl)methyl)piperazine-1-carbonyl)-[1,4′-bipiperidin]-4-yl)-2-(4-phenoxyphenyl)-4,5,6,7-tetrahydropyrazolo[1,5-a]pyrimidine-3-carboxamide] |  |  | > 75% | > 50 nM |  | > 10000 nM | > 10000 nM
